The text below walks through data of patent publication US9873680B2 (Gilead Sciences, Inc., priority 2014, dated 2018).

The test system of one data set is HIV-IIIb. The data set is described as follows: Test A: Antiviral Assay in MT4 Cells. The format is cell-based, HIV-1. Conditions: Human immunodeficiency virus 1, MT4, 120 h; 0.2 μM drug concentration; MT-4 cells infected with HIV-IIIb, 5 days; values normalized to 100%; average over time; read-out: % inhibition at 0.2 μM (percent inhibition of virus-induced cell killing). The method, boiled down:
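Readout was CellTiter-Glo luminescence after 10 min room-temperature lysis, taken 5 days after plating at 37 °C. The 2000 MT-4 cells per well, mixed 1 h beforehand with HIV-IIIb (m.o.i. 0.003), went straight onto the diluted compound.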

Data set [1] is described as follows: Test B: Cytotoxicity Assay. Type of data set: cell-based. Particulars: human, uninfected MT-4 cells, CellTiter-Glo. As to the method:
Test B: Cytotoxicity Assay Compound cytotoxicity and the corresponding CC50 values was determined using the same protocol as described in the antiviral assay (Test A) except that uninfected cells were used.
In general terms: In ATP-based viability assays light output follows the ATP content of the culture.

`Cn1nc(NS(C)(=O)=O)c2c(Cl)ccc(-c3ccc(C#CC4(O)CCOCC4)nc3[C@H](Cc3cc(F)cc(F)c3)NC(=O)Cn3nc(C(F)F)c4c3C(F)(F)[C@@H]3C[C@H]43)c21` [Compound 40, N—((S)-1-(3-(4-chloro-1-methyl-3-(methylsulfonamido)-1H-indazol-7-yl)-6-((4-hydroxytetrahydro-2H-pyran-4-yl)ethynyl)pyridin-2-yl)-2-(3,5-difluorophenyl)ethyl)-2-((3bS,4aR)-3-(difluoromethyl)-5,5-difluoro-3b,4,4a,5-tetrahydro-1H-cyclopropa[3,4]cyclopenta[1,2-c]pyrazol-1-yl)acetamide]: in the data set on HIV-IIIb, the inhibition (commonly the percentage by which the read-out fell short of the control) at 0.2 µM came out at 96%. In addition, in data set [1], the CC50 (in general, the concentration at which the toxic effect on the cells reaches its halfway point) at 5 days stood at 17 µM.
For `CN1CCN(C(C)(C)C#Cc2ccc(-c3ccc(Cl)c4c(NS(C)(=O)=O)nn(C)c34)c([C@H](Cc3cc(F)cc(F)c3)NC(=O)Cn3nc(C(F)(F)F)c4c3C(F)(F)[C@@H]3C[C@H]43)n2)CC1` [Compound 41, N—((S)-1-(3-(4-chloro-1-methyl-3-(methylsulfonamido)-1H-indazol-7-yl)-6-(3-methyl-3-(4-methylpiperazin-1-yl)but-1-yn-1-yl)pyridin-2-yl)-2-(3,5-difluorophenyl)ethyl)-2-((3bS,4aR)-5,5-difluoro-3-(trifluoromethyl)-3b,4,4a,5-tetrahydro-1H-cyclopropa[3,4]cyclopenta[1,2-c]pyrazol-1-yl)acetamide], in that order: 98% and 2.08 µM.
For `CN1CC(NC(C)(C)C#Cc2ccc(-c3ccc(Cl)c4c(NS(C)(=O)=O)nn(C)c34)c([C@H](Cc3cc(F)cc(F)c3)NC(=O)Cn3nc(C(F)(F)F)c4c3C(F)(F)[C@@H]3C[C@H]43)n2)C1` [Compound 42, N—((S)-1-(3-(4-chloro-1-methyl-3-(methylsulfonamido)-1H-indazol-7-yl)-6-(3-methyl-3-((1-methylazetidin-3-yl)amino)but-1-yn-1-yl)pyridin-2-yl)-2-(3,5-difluorophenyl)ethyl)-2-((3bS,4aR)-5,5-difluoro-3-(trifluoromethyl)-3b,4,4a,5-tetrahydro-1H-cyclopropa[3,4]cyclopenta[1,2-c]pyrazol-1-yl)acetamide], in that order: 90% and 2.77 µM.
For `Cn1nc(NS(C)(=O)=O)c2c(Cl)ccc(-c3ccc(C#CC4CCCN4)nc3[C@H](Cc3cc(F)cc(F)c3)NC(=O)Cn3nc(C(F)(F)F)c4c3C(F)(F)[C@@H]3C[C@H]43)c21` (stereo partly drawn) [Compound 43H, N-((1S)-1-(3-(4-chloro-1-methyl-3-(methylsulfonamido)-1H-indazol-7-yl)-6-(pyrrolidin-2-ylethynyl)pyridin-2-yl)-2-(3,5-difluorophenyl)ethyl)-2-((3bS,4aR)-5,5-difluoro-3-(trifluoromethyl)-3b,4,4a,5-tetrahydro-1H-cyclopropa[3,4]cyclopenta[1,2-c]pyrazol-1-yl)acetamide], in that order: 99% and 4.34 µM.
As to `Cn1nc(NS(C)(=O)=O)c2c(Cl)ccc(-c3ccc(C#CC4CCNC4)nc3[C@H](Cc3cc(F)cc(F)c3)NC(=O)Cn3nc(C(F)(F)F)c4c3C(F)(F)[C@@H]3C[C@H]43)c21` (stereo partly drawn) [Compound 44, N-((1S)-1-(3-(4-chloro-1-methyl-3-(methylsulfonamido)-1H-indazol-7-yl)-6-(pyrrolidin-3-ylethynyl)pyridin-2-yl)-2-(3,5-difluorophenyl)ethyl)-2-((3bS,4aR)-5,5-difluoro-3-(trifluoromethyl)-3b,4,4a,5-tetrahydro-1H-cyclopropa[3,4]cyclopenta[1,2-c]pyrazol-1-yl)acetamide], in the data set on HIV-IIIb, the inhibition at 0.2 µM worked out at 100%. The compound further came in with a CC50 at 5 days in data set [1] of 5.64 µM.
For `Cn1nc(NS(C)(=O)=O)c2c(Cl)ccc(-c3ccc(C#CC4(CO)CCCC4)nc3[C@H](Cc3cc(F)cc(F)c3)NC(=O)Cn3nc(C(F)(F)F)c4c3C(F)(F)[C@@H]3C[C@H]43)c21` [Compound 45B, N—((S)-1-(3-(4-chloro-1-methyl-3-(methylsulfonamido)-1H-indazol-7-yl)-6-((1-(hydroxymethyl)cyclopentyl)ethynyl)pyridin-2-yl)-2-(3,5-difluorophenyl)ethyl)-2-((3bS,4aR)-5,5-difluoro-3-(trifluoromethyl)-3b,4,4a,5-tetrahydro-1H-cyclopropa[3,4]cyclopenta[1,2-c]pyrazol-1-yl)acetamide], in that order: 93% and 7.35 µM.
On to `Cn1nc(NS(C)(=O)=O)c2c(Cl)ccc(-c3ccc(C#CC4(O)CCOC4)nc3[C@H](Cc3cc(F)cc(F)c3)NC(=O)Cn3nc(C(F)(F)F)c4c3C(F)(F)[C@@H]3C[C@H]43)c21` (stereo partly drawn) [Compound 46, N-((1S)-1-(3-(4-chloro-1-methyl-3-(methylsulfonamido)-1H-indazol-7-yl)-6-((3-hydroxytetrahydrofuran-3-yl)ethynyl)pyridin-2-yl)-2-(3,5-difluorophenyl)ethyl)-2-((3bS,4aR)-5,5-difluoro-3-(trifluoromethyl)-3b,4,4a,5-tetrahydro-1H-cyclopropa[3,4]cyclopenta[1,2-c]pyrazol-1-yl)acetamide], for which the inhibition at 0.2 µM in the data set on HIV-IIIb worked out at 96%. Besides, the CC50 at 5 days in data set [1] stood at 17.6 µM.
Turning to `CN1CCN(CC#Cc2ccc(-c3ccc(Cl)c4c(NS(C)(=O)=O)nn(C)c34)c([C@H](Cc3cc(F)cc(F)c3)NC(=O)Cn3nc(C(F)(F)F)c4c3C(F)(F)[C@@H]3C[C@H]43)n2)CC1` [Compound 47, N—((S)-1-(3-(4-chloro-1-methyl-3-(methylsulfonamido)-1H-indazol-7-yl)-6-(3-(4-methylpiperazin-1-yl)prop-1-yn-1-yl)pyridin-2-yl)-2-(3,5-difluorophenyl)ethyl)-2-((3bS,4aR)-5,5-difluoro-3-(trifluoromethyl)-3b,4,4a,5-tetrahydro-1H-cyclopropa[3,4]cyclopenta[1,2-c]pyrazol-1-yl)acetamide], in the data set on HIV-IIIb, the inhibition at 0.2 µM stood at 94%. In addition, in data set [1], the CC50 at 5 days is 7.97 µM.
For `CC1CC(O)(C#Cc2ccc(-c3ccc(Cl)c4c(NS(C)(=O)=O)nn(C)c34)c([C@H](Cc3cc(F)cc(F)c3)NC(=O)Cn3nc(C(F)(F)F)c4c3C(F)(F)[C@@H]3C[C@H]43)n2)CC(C)O1` (stereo partly drawn) [Compound 48C, N-((1S)-1-(3-(4-chloro-1-methyl-3-(methylsulfonamido)-1H-indazol-7-yl)-6-((4-hydroxy-2,6-dimethyltetrahydro-2H-pyran-4-yl)ethynyl)pyridin-2-yl)-2-(3,5-difluorophenyl)ethyl)-2-((3bS,4aR)-5,5-difluoro-3-(trifluoromethyl)-3b,4,4a,5-tetrahydro-1H-cyclopropa[3,4]cyclopenta[1,2-c]pyrazol-1-yl)acetamide], in that order: 92% and 7.27 µM.
Taken in the same sequence, the figures for `Cn1nc(NS(C)(=O)=O)c2c(Cl)ccc(-c3ccc(C#CC4COCCN4)nc3[C@H](Cc3cc(F)cc(F)c3)NC(=O)Cn3nc(C(F)(F)F)c4c3C(F)(F)[C@@H]3C[C@H]43)c21` (stereo partly drawn) [Compound 49, N-((1S)-1-(3-(4-chloro-1-methyl-3-(methylsulfonamido)-1H-indazol-7-yl)-6-(morpholin-3-ylethynyl)pyridin-2-yl)-2-(3,5-difluorophenyl)ethyl)-2-((3bS,4aR)-5,5-difluoro-3-(trifluoromethyl)-3b,4,4a,5-tetrahydro-1 I-cyclopropa[3,4]cyclopenta[1,2-c]pyrazol-1-yl)acetamide] were 92% and 20.6 µM.
